Laboratory results from patent publication US6747027B1, “Thiol sulfonamide metalloprotease inhibitors” (Pharmacia Corporation, priority 1996, dated 2004).

How the values were obtained:
[1] = biological target: T1, recombinant human MMP-1 (Homo sapiens, UniProt P03956); test: In vitro metalloprotease inhibition, fluorogenic peptide assay (MMP-1); type: biochemical; details: recombinant human MMP-1, APMA activated; fluorogenic MCA peptide substrate 4 uM; pH 7.5, room temperature
T1 construct: made in house; host or cells: transfected HT-1080 cells (provided by Dr. Howard Welgus, Washington University)
T1 sequence (P03956 100-469): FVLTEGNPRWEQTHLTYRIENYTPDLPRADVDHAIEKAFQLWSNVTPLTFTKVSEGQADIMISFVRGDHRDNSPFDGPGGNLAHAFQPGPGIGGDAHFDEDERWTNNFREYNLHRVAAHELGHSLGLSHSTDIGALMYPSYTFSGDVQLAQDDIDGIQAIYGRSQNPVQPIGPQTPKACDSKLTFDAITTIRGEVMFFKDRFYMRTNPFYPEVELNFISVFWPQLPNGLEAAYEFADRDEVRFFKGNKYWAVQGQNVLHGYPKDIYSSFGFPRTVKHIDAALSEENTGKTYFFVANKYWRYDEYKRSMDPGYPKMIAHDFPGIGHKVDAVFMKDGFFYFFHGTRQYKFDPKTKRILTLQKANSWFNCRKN
Procedure, shortened: (§1)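 APMA-activated recombinant human MMP-13 (baculovirus-expressed) and MMP-1 (HT-1080-expressed) preincubated with inhibitor 10 min at room temperature in Tris/NaCl/CaCl2 buffer, pH 7.5, 1% DMSO final. MCA-PLGL-Dpa-AR-NH2 substrate at 4 uM final; cleavage read as fluorescence (ex 328/em 415 nm). IC50 from fluorescence reduction versus inhibitor concentration.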

[2] = biological target: T2, recombinant human MMP-13 (Homo sapiens, UniProt P45452); test: In vitro metalloprotease inhibition, fluorogenic peptide assay (MMP-13); type: biochemical; details: recombinant human MMP-13, APMA activated; fluorogenic MCA peptide substrate 4 uM; pH 7.5, room temperature
T2 construct: made in house
Procedure, shortened: as §1

[3] = test system: angiogenesis in the cornea of a mouse; test: In vivo angiogenesis assay (corneal micropocket assay, bFGF pellet); details: C57Bl/6 female mouse, 50 mg/kg bid, po, scored at day five
Procedure: The study of angiogenesis depends on a reliable and reproducible model for the stimulation and inhibition of a neovascular response. The corneal micropocket assay provides such a model of angiogenesis in the cornea of a mouse. See, A Model of Angiogenesis in the Mouse Cornea; Kenyon, B M, et al., Investigative Ophthalmology & Visual Science, July 1996, Vol. 37, No. 8.
In this assay, uniformly sized Hydron™ pellets containing bFGF and sucralfate were prepared and surgically implanted into the stroma mouse cornea adjacent to the temporal limbus. […]
Mice were dosed on a daily basis for the duration of the assay. […] At day five, the degree of angiogenic inhibition was scored by viewing the neovascular progression with a slit lamp microscope.
The mice were anesthetized and the studied eye was once again proptosed. The maximum vessel length of neovascularization, extending from the limbal vascular plexus toward the pellet was measured. In addition, the contiguous circumferential zone of neovascularization was measured as clock hours, where 30 degrees of arc equals 1 clock hour. The area of angiogenesis was calculated as [formula]
where the vessel length is measured in millimeters.
The studied mice were thereafter compared to control mice and the difference in the area of neovascularization was recorded.

CCCCOc1ccc(S(=O)(=O)N[C@@H](CS)C(=O)NCc2ccccc2)cc1 [Example 209]
IC50 [1]: > 10000 nM
IC50 [2]: 50 nM

NC(=O)[C@H](CSSC[C@@H](C(N)=O)N(CCN1CCOCC1)S(=O)(=O)c1ccc(Oc2ccccc2)cc1)N(CCN1CCOCC1)S(=O)(=O)c1ccc(Oc2ccccc2)cc1 [Example 213]
IC50 [1]: > 10000 nM
IC50 [2]: 1.5 nM

CC(=O)SC[C@@H](C(N)=O)N(CCN1CCOCC1)S(=O)(=O)c1ccc(Sc2ccccc2)cc1 [Example 216]
IC50 [1]: > 10000 nM
IC50 [2]: 200 nM

C[C@H](CS)NS(=O)(=O)c1ccc(/N=N/c2ccc(N(C)C)cc2)cc1 [Example 217]
IC50 [1]: > 10000 nM
IC50 [2]: 1.5 nM

NC(=O)[C@H](CS)N(CCN1CCOCC1)S(=O)(=O)c1ccc(NC(=O)c2ccccc2)cc1 [Example 218, N-(4-benzoylamino)phenylsulfonyl-N-(4-(morpholino-ethyl))-L-cysteine amide]
IC50 [1]: > 10000 nM
IC50 [2]: 1.1 nM
inhibition of area of neovascularization versus control mice [3]: 37%

NC(=O)[C@H](CS)N(CCN1CCOCC1)S(=O)(=O)c1ccc(NC(=O)c2ccc(Cl)cc2)cc1 [Example 220, N-(4-(4′-chlorobenzoyl)amino)phenylsulfonyl-N-(4-(morpholinoethyl))-L-cysteine amide]
IC50 [1]: 7000 nM
IC50 [2]: 1.4 nM

NC(=O)[C@H](CS)N(CCN1CCOCC1)S(=O)(=O)c1ccc(NC(=O)c2ccc(Br)cc2)cc1 [Example 222, N-(4-(4′-bromobenzoyl)amino)phenylsulfonyl-N-(4-(morpholinoethyl))-L-cysteine amide]
IC50 [1]: 5300 nM
IC50 [2]: 1.1 nM

N-(1R-Mercaptomethyl)propyl-N-methyl-4-(n-butoxy)benzenesulfonamide [Example 23C]
IC50 [1]: 4000 nM
IC50 [2]: 150 nM

N-(2-Mercapto-1R-methylethyl)-N-[2-(4-morpholino)ethyl]-4-(thiophenyl)benzenesulfonamide Hydrochloride [Example 91D]
IC50 [1]: > 10000 nM
IC50 [2]: 0.7 nM

N-(2-Mercapto-1S-methylethyl)-N-(phenylmethyl)-4-methoxybenzenesulfonamide [Example 13C]
IC50 [1]: > 10000 nM
IC50 [2]: 2000 nM

N-(2-mercapto-1R-methylethyl)-4-methylbenzenesulfonamide [Example 68]
IC50 [1]: > 10000 nM
IC50 [2]: 1720 nM

N-(2-mercapto-1R-methylethyl)-4-n-pentyl)benzenesulfonamide [Example 71]
IC50 [1]: > 10000 nM
IC50 [2]: 40 nM

N-(2-mercapto-1R-methylethyl)-4-n-propyl)benzenesulfonamide [Example 70]
IC50 [1]: > 10000 nM
IC50 [2]: 440 nM
